What was measured:
[1] = system: Male ICR mice; assay: Change in rectal temperature (RT) in mice; format: in vivo, mouse; conditions: Mus musculus, iv, mice, i.v.
[2] = target: CB1 receptor (Rattus norvegicus, UniProt P20272); assay: CB1 binding procedure: displacement of [3H]CP 55,940 from rat whole-brain P2 membranes; design: whole brain was homogenized and centrifuged; from tissue; host or cells: rat whole brain, P2 membrane fraction; conditions: for Ki: means ± SEM, [3H]CP 55,940, rat brain membranes, read-out: Ki (nM) CB1; for fold decrease in CB1 affinity: relative to the comparator analog
Sequence of CB1 receptor (P20272 whole entry): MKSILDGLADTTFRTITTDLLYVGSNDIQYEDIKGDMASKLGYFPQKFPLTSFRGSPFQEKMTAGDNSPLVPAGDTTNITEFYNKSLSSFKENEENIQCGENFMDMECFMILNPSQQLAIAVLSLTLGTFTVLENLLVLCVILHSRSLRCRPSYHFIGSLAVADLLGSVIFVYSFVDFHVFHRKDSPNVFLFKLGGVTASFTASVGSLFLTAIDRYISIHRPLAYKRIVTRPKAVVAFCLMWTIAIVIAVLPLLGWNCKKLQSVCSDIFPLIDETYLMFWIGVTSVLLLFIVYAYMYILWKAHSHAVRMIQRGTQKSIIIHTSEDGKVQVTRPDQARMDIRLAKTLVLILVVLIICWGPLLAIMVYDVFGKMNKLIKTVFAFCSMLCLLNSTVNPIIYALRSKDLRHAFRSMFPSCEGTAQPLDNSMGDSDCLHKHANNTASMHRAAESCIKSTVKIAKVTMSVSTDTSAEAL

[3] = system: Male ICR mice; assay: Tail-flick antinociception (TF, % MPE) in mice; format: in vivo, mouse; conditions: Mus musculus, iv, mice, i.v.
[4] = 95% confidence limits in parentheses, read-out: ED50 RT (rectal temperature)
[5] = 95% confidence limits in parentheses, read-out: ED50 TF (antinociceptive effect in tail flick assay)

CCCCCCC(C)(C)c1cc(O)c(C2CCCC(C)C2)c(O)c1 (mixture of isomers) [O-1657, 2-(3-Methylcyclohexyl)-5-(1′,1′-dimethylheptyl)-resorcinol]
ED50 ([1]; Table 6, read-out: R.T. ED50): 0.29 mg/kg | ED50 [1, 4]: 0.9 µmol/kg | Ki [2]: 14 nM | ED50 ([3]; Table 6, read-out: T.F. ED50): 0.23 mg/kg | ED50 [3, 5]: 0.6 µmol/kg

CCCCCCC(C)(C)c1cc(O)c([C@H]2CCCC(C)C2)c(O)c1 (single isomer, unassigned) [O-1826]
ED50 ([1]; Table 6, read-out: R.T. ED50): 1.16 mg/kg | ED50 [1, 4]: 3.6 µmol/kg | Ki [2]: 40 nM | ED50 ([3]; Table 6, read-out: T.F. ED50): 0.821 mg/kg | ED50 [3, 5]: 2.4 µmol/kg

CCCCCCC(C)(C)c1ccc(-c2cc(C)ccc2C(C)C)c(O)c1 [O-1376, 3-1′,1′-Dimethylheptyl-6-(2-isopropyl-5-methylphenyl)phenol]
ED50 ([1]; Table 6, read-out: R.T. ED50): 0.822 mg/kg | ED50 [1, 4]: 2.3 µmol/kg | Ki [2]: 33 ± 4 nM | ED50 ([3]; Table 6, read-out: T.F. ED50): 1.97 mg/kg | ED50 [3, 5]: 5.7 µmol/kg

CCCCCCC(C)(C)c1cc(O)c(C2CCCCC2)c(O)c1 [O-1422, Cyclohexyl-5-(1′,1′-dimethylheptyl)-resorcinol]
ED50 ([1]; Table 6, read-out: R.T. ED50): 0.194 mg/kg | ED50 [1, 4]: 0.6 µmol/kg | Ki [2]: 11 ± 2 nM | ED50 ([3]; Table 6, read-out: T.F. ED50): 0.241 mg/kg | ED50 [3, 5]: 0.6 µmol/kg

CCCCCCC(C)(C)c1cc(O)c(C2=CCCCC2)c(O)c1 [O-1423]
ED50 ([1]; Table 6, read-out: R.T. ED50): 2.94 mg/kg | ED50 [1, 4]: 9 µmol/kg | Ki [2]: 97 ± 5 nM | ED50 ([3]; Table 6, read-out: T.F. ED50): 2.86 mg/kg | ED50 [3, 5]: 9 µmol/kg

CCCCCCC(C)(C)c1cc(O)c(C2CCSCC2)c(O)c1 [O-1425]
ED50 ([1]; Table 6, read-out: R.T. ED50): 4.53 mg/kg | ED50 [1, 4]: 13 µmol/kg | Ki [2]: 153 ± 17 nM | fold decrease in CB1 affinity [2]: 14 fold | ED50 ([3]; Table 6, read-out: T.F. ED50): 5.05 mg/kg | ED50 [3, 5]: 15 µmol/kg

CCCCCCC(C)(C)c1cc(O)c(C2CCCCC2C)c(O)c1 (stereo not drawn) [O-1658, 2-(2-Methylcyclohexyl)-5-(1′,1′-dimethylheptyl)-resorcinol]
ED50 ([1]; Table 6, read-out: R.T. ED50): 0.12 mg/kg | ED50 [1, 4]: 0.3 µmol/kg | Ki [2]: 16 ± 2 nM | ED50 ([3]; Table 6, read-out: T.F. ED50): 0.09 mg/kg | ED50 [3, 5]: 0.3 µmol/kg

CCCCCCC(C)(C)c1cc(O)c(C2CCC(C)CC2)c(O)c1 (stereo not drawn) [O-1659, 2-(4-Methylcyclohexyl)-5-(1′,1′-dimethylheptyl)-resorcinol]
ED50 ([1]; Table 6, read-out: R.T. ED50): 1.12 mg/kg | ED50 [1, 4]: 3.3 µmol/kg | Ki [2]: 45 ± 1 nM | fold decrease in CB1 affinity [2]: about 5 fold | ED50 ([3]; Table 6, read-out: T.F. ED50): 1.35 mg/kg | ED50 [3, 5]: 3.9 µmol/kg

CCCCCCC(C)(C)c1cc(O)c(C2C3CC4CC(C3)CC2C4)c(O)c1 (stereo not drawn) [O-1660, 2-(2-Adamantyl)-5-(1′,1′-di-methylheptyl)-resorcinol]
ED50 ([1]; Table 6, read-out: R.T. ED50): 1.73 mg/kg | ED50 [1, 4]: 4.6 µmol/kg | Ki [2]: 7 ± 1 nM | ED50 ([3]; Table 6, read-out: T.F. ED50): 0.911 mg/kg | ED50 [3, 5]: 2.4 µmol/kg

CCCCCCC(C)(C)c1cc(O)c(C2CCSC2)c(O)c1 (stereo not drawn) [O-1661, 2-(Tetrahydrothiophen-3-yl)-5-(1′,1′-dimethylheptyl)-re-sorcinol]
ED50 ([1]; Table 6, read-out: R.T. ED50): 7.78 mg/kg | ED50 [1, 4]: 24 µmol/kg | Ki [2]: 138 ± 4 nM | ED50 ([3]; Table 6, read-out: T.F. ED50): 4.39 mg/kg | ED50 [3, 5]: 14 µmol/kg

CCCC(C)(C)c1cc(O)c(C2CCCC(C)C2)c(O)c1 (stereo not drawn) [O-1890, 2-(3-Methylcyclohexyl)-5-(1′,1′-dimethylbutyl)-resorcinol]
ED50 ([1]; Table 6, read-out: R.T. ED50): 21 mg/kg | ED50 [1, 4]: 72 µmol/kg | Ki [2]: 96 ± 4 nM | ED50 ([3]; Table 6, read-out: T.F. ED50): 14 mg/kg | ED50 [3, 5]: 48 µmol/kg
